Data as given in patent US6544551B1, “Solid pharmaceutical compositions containing hexedecylphosphocholine (miltefosine) for oral administration in the treatment of leishmaniasis” (priority 1998, dated 2003).

Experiments:
[1] = tested on: experimental visceral leishmaniasis (VL); conditions: in vivo; cited from earlier work
[2] = Clinical study of oral miltefosine capsules in human visceral leishmaniasis: tolerability and safety; format: in vivo
Method: (§1) Miltefosine (MILT, hexadecylphosphocholine, ASTA Medica), an antineoplastic alkylphospholipid, is active in experimental visceral leishmaniasis (VL). To test oral MILT in human VL, 30 male Indian patients from Bihar (age>14 years; 18 of the 30 were antimony (Sb) failures) with splenic aspirate-positive VL were treated in 6 groups of 5 patients each (Groups A-F) for 28 days with escalating doses by oral administration of capsules according to example 1: (A) 50 mg once qod (qod=[…]), (B) 50 mg BID god (BID=twice per day), and then daily using 50 mg (C) BID (100 mg/d), (D) TID (150 mg/d), (E) QID (200 mg/d), and (F) 5×per day (250 mg/d).

[3] = tested on: visceral leishmaniasis (VL); assay: Clinical study of oral miltefosine capsules in human visceral leishmaniasis: efficacy; format: in vivo
Method: as §1

[4] = Hygroscopicity (incorporation of water molecules); format: physicochemical
[5] = Day 14 results in 30 patients, Groups A-F together, oral
[6] = Group A: 50 mg once qod, 28 days, oral
[7] = Group B: 50 mg BID qod, 28 days, oral
[8] = Group D: 50 mg TID (150 mg/d), 28 days, oral

For `CCCCCCCCCCCCCCCCOP(=O)([O-])OCC[N+](C)(C)C` [Miltefosine, hexadecylphosphocholine], the “activity in experimental visceral leishmaniasis” value [1] is listed as “active”, the patients died ([2]; Group F (250 mg/d), died on day 21, drug stopped on day 19, severe vomiting and diarrhea, dehydration, renal failure) is listed as 1 patient and the hematologic toxicity ([2]; human, in vivo) is listed as “no hematologic toxicity”. For the same compound, the “mild vomiting or diarrhea lasting 3-7 days” value ([2]; human, in vivo) was “most patients”, the “patients removed because of vomiting, Group F” value ([2]; male, human, in vivo, 28 days) was 3 and the “maximum tolerated daily dose” value ([2]; oral, human VL patients, 28 days) was 200 mg/day. For the same compound, the “patients afebrile by day 7” value ([3]; 30 male Indian VL patients, Groups A-F together, oral capsules according to example 1, 28 days, day 7) was 16 patients, the “all 3 responses (afebrile, decreased spleen size, negative aspirate) = apparent cures, day 14” value ([3]; Day 14, Groups A-F together, oral) was 21 of 30 and the “afebrile, day 14” value [3, 5] was 25 patients. The “decreased spleen size, day 14” value [3, 5] was 25 patients, the “negative spleenic aspirates (apparent parasitologic cure), day 14” value [3, 5] was 28 patients and the “apparent cures on day 28 (percent of patients)” value ([3]; Day 28, 29 patients) was 100%. For the same compound, the “apparent cures on day 28” value ([3]; Day 28, Groups A-F together, including 4 patients with less than 10 days of therapy) was 29 of 29, the “cure (no relapse, parasite-free bone marrow aspirate) within 6 months, Group A” value [3, 6] was 2/5 and the “relapsed within 6 months, Group A” value [3, 6] was 3/5. For the same compound, the “cure (no relapse, parasite-free bone marrow aspirate) within 6 months, Group B” value [3, 7] was 2/5, the “relapsed within 6 months, Group B” value [3, 7] was 3/5 and the “cure (no relapse, parasite-free bone marrow aspirate) within 6 months, Group C” value ([3]; Group C: 50 mg BID (100 mg/d), 28 days, oral) was 5/5. For the same compound, the “cure (no relapse, parasite-free bone marrow aspirate) within 6 months, Group D” value [3, 8] was 4/5, the “relapsed within 6 months, Group D” value [3, 8] was 1/5 and the “cure (no relapse, parasite-free bone marrow aspirate) within 6 months, Group E” value ([3]; Group E: 50 mg QID (200 mg/d), 28 days, oral) was 5/5. For the same compound, the “apparent cures relapsed within 6 months” value ([3]; all groups, within 6 months) was 7 of 29, the “apparent cure (no relapse, parasite-free bone marrow aspirate) within 6 months” value ([3]; all groups, within 6 months, 1 patient still in follow up) was 21 of 26 and the “patients with definite cure who had failed prior therapy with antimony” value ([3]; of the first 21 patients with definite cure) was 14 patients. For the same compound, the “increase in weight by incorporation of water molecules” value [4] was “up to 30%”.
